Test results from patent publication US7767854B2, “N-substituted phenylacetamide derivative and pharmaceutical composition containing the same” (Dainippon Sumitomo Pharma Co., Ltd., priority 2005, dated 2010).
Read-outs that look alike come from different tables or passages of the source.

System: male Std: Wistar rats
Test: Pain test by plantar thermal stimuli (plantar test)
Format: in vivo
Settings: Rattus norvegicus, 50 μl of 0.03% (W/V) solution i.pl. into right hind-paw, 4 hours after administration, cut-off 25 seconds, read-out: % MPE (percent maximum possible effect, withdrawal latency)
Method: Experiment 1: Pain Test by Plantar Thermal Stimuli (Plantar Test)
In the present experiment, the analgesic effect of the compounds of the invention was evaluated by the measurements of withdrawal latency to noxious thermal stimuli, according to the methods of Hargreaves, et al., [Pain, 32, 77-88 (1988)] and Field, et al., [J. Pharmacol. Exp. Ther., 282, 1242-1246 (1997)].
In detail, the experiment was carried out using male Std: Wistar rats (4 rats/group; body weight, 170-220 g) and a plantar test device (Model 7370, Ugo Basile) with infrared beam as a heat source. The rat was put into an experimental cage that is an acrylic box whose bottom is made of glass and was habituated therein. Then, the infrared beam was radiated to the plantar surface of right hind-paw thereof through the floor glass, and the withdrawal latency was measured every 5 minutes, 3 times. The intension of the infrared beam was adjusted so that the pre-drug administration latency was about 10 seconds. The cut-off time was set at 25 seconds in order to prevent a paw burn. The average of the latencies was calculated, and then it was defined as the value of the pre-drug administration latency of the test compound.
Next day, 50 μl of each solution of the test compounds [the compounds of the invention, the compounds of the comparative Examples and capsaicin (Sigma, U.S.A.)] or 50 μl of vehicle solvent (reference) was given to a right hind-paw of the rat by intraplantar injection (i. pl.) using a micro-syringe. The test compound was dissolved in a saline solution containing 10% Tween 80 (Sigma, U.S.A) and 10% ethanol to give a 0.03% (W/V) solution. The saline solution containing 10% Tween 80 and 10% ethanol was used as reference. Four hours after i.pl. administration of each the test compound or the reference to the rats, the experiment mentioned above was carried out, and then the post-drug administration latency was measured. The analgesic effects thereof were calculated with the following formula, which was known as a percent maximum possible effect (% MPE). % MPE=[(the value of post-drug latency−the value of pre-drug latency)/(25*−the value of pre-drug latency)]×100 *: cut-off time

Question: How did the change in vivo at 300 µg/mL (4 h) turn out when `COc1cc(CC(=O)N[C@H]2CC[C@H](C=C3CCC3)CC2)ccc1O` [Example 91, N-[trans-4-(cyclobutylidenemethyl)-cyclohexyl]-2-(4-hydroxy-3-methoxyphenyl)acetamide] was run?
Answer: Its change in vivo at 300 µg/mL is 74.2%.

Question: `C=C/C=C/[C@H]1CC[C@H](NC(=O)Cc2ccc(O)c(OC)c2)CC1` [Example 19] was tested. Which change in vivo at 300 µg/mL (4 h) did it give?
Answer: The change in vivo at 300 µg/mL was 35.9%.

Question: For `COc1cc(CC(=O)NC2CCC(c3ccccc3)CC2)ccc1O` (stereo not drawn) [Example 6], which change in vivo at 300 µg/mL (4 h) is on record?
Answer: Its change in vivo at 300 µg/mL is 82.6%.

Question: How did the change in vivo at 300 µg/mL (4 h) turn out when `COc1cc(CC(=O)N[C@H]2CC[C@H](CC3CCC3)CC2)ccc1O` [Example 93, N-[trans-4-(cyclobutylmethyl)cyclohexyl]-2-(4-hydroxy-3-methoxyphenyl)acetamide] was run?
Answer: The change in vivo at 300 µg/mL was 69.7%.

Question: `CCC(C)(C)C1CCC(NC(=O)Cc2ccc(O)c(OC)c2)CC1` (stereo not drawn) [Example 4] was tested. Which change in vivo at 300 µg/mL (4 h) did it give?
Answer: The change in vivo at 300 µg/mL was 56.6%.

Question: How did the change in vivo at 300 µg/mL (4 h) turn out when `COc1cc(CC(=O)N[C@H]2CC[C@H](/C=C/CC3CC3)CC2)ccc1O` [Example 58] was run?
Answer: Its change in vivo at 300 µg/mL is 48.6%.

Question: Which change in vivo at 300 µg/mL (4 h) does the source give for `COc1cc(CC(=O)NC2CCC(=C3CCCCCC3)CC2)ccc1O` (stereo not drawn) [Example 81] here?
Answer: Its change in vivo at 300 µg/mL is 94.4%.

Question: Which change in vivo at 300 µg/mL (4 h) does the source give for `COc1cc(CC(=O)N[C@H]2CC[C@H](/C=C\C3CC3)CC2)ccc1O` [Example 18] here?
Answer: Its change in vivo at 300 µg/mL is 80.5%.

Question: For `COc1cc(CC(=O)N[C@H]2CC[C@@H](/C=C/C(C)C)CC2)ccc1O` [Example 63], which change in vivo at 300 µg/mL (4 h) is on record?
Answer: Its change in vivo at 300 µg/mL is 96.4%.

Question: How did the change in vivo at 300 µg/mL (4 h) turn out when `CCCC[C@H]1CC[C@H](NC(=O)Cc2ccc(O)c(OC)c2)CC1` [Example 28] was run?
Answer: Its change in vivo at 300 µg/mL is 87.1%.

Question: Which change in vivo at 300 µg/mL (4 h) does the source give for `COc1cc(CC(=O)N[C@H]2CC[C@@H](/C=C/C3CCC3)CC2)ccc1O` [Example 66] here?
Answer: The change in vivo at 300 µg/mL was 88%.

Question: Which change in vivo at 300 µg/mL (4 h) does the source give for `COc1cc(CC(=O)N[C@H]2CC[C@H](/C=C/C3CCC3)CC2)ccc1O` [Example 57] here?
Answer: The change in vivo at 300 µg/mL was 54.2%.

Question: With `CCC[C@H]1CC[C@@H](NC(=O)Cc2ccc(O)c(OC)c2)CC1` [Example 68, 2-(4-hydroxy-3-methoxyphenyl)-N-(cis-4-propylcyclohexyl)acetamide] as the molecule, how does the change in vivo at 300 µg/mL (4 h) read?
Answer: The change in vivo at 300 µg/mL was 81.6%.

Question: Which change in vivo at 300 µg/mL (4 h) does the source give for `COc1cc(CC(=O)NC2CCC(C3CCCCC3)CC2)ccc1O` (stereo not drawn) [Example 5] here?
Answer: The change in vivo at 300 µg/mL was 59.2%.

Question: How did the change in vivo at 300 µg/mL (4 h) turn out when `COc1cc(CC(=O)NC2CCC(=C3CCCCC3)CC2)ccc1O` (stereo not drawn) [Example 76, N-(4-cyclohexylidenecyclohexyl)-2-(4-hydroxy-3-methoxyphenyl)acetamide] was run?
Answer: The change in vivo at 300 µg/mL was 71%.

Question: Which change in vivo at 300 µg/mL (4 h) does the source give for `CCC(CC)[C@H]1CC[C@H](NC(=O)Cc2ccc(O)c(OC)c2)CC1` [Example 84] here?
Answer: Its change in vivo at 300 µg/mL is 76.9%.

Question: For `CCCC(CCC)[C@H]1CC[C@H](NC(=O)Cc2ccc(O)c(OC)c2)CC1` [Example 85], which change in vivo at 300 µg/mL (4 h) is on record?
Answer: The change in vivo at 300 µg/mL was 49.3%.

Question: `COc1cc(CC(=O)NC2CCC(=C3CCCC3)CC2)ccc1O` (stereo not drawn) [Example 80] was tested. Which change in vivo at 300 µg/mL (4 h) did it give?
Answer: The change in vivo at 300 µg/mL was 37%.

Question: For `C/C=C/[C@H]1CC[C@@H](NC(=O)Cc2ccc(O)c(OC)c2)CC1` [Example 61], which change in vivo at 300 µg/mL (4 h) is on record?
Answer: Its change in vivo at 300 µg/mL is 49.4%.

Question: Which change in vivo at 300 µg/mL (4 h) does the source give for `COc1cc(CC(=O)NC2CCCCC2)ccc1O` [Comparative Example 2, N-cyclohexyl-2-(4-hydroxy-3-methoxyphenyl)-acetamide, reference compound] here?
Answer: The change in vivo at 300 µg/mL was 30.6%.

Question: For `CC/C=C/[C@H]1CC[C@@H](NC(=O)Cc2ccc(O)c(OC)c2)CC1` [Example 62], which change in vivo at 300 µg/mL (4 h) is on record?
Answer: The change in vivo at 300 µg/mL was 86.3%.

Question: With `COc1cc(CC(=O)N[C@H]2CC[C@@H](/C=C/CC3CC3)CC2)ccc1O` [Example 67] as the molecule, how does the change in vivo at 300 µg/mL (4 h) read?
Answer: Its change in vivo at 300 µg/mL is 55.6%.

Question: With `CCCCOC[C@H]1CC[C@H](NC(=O)Cc2ccc(O)c(OC)c2)CC1` [Example 39] as the molecule, how does the change in vivo at 300 µg/mL (4 h) read?
Answer: Its change in vivo at 300 µg/mL is 39.6%.

Question: Which change in vivo at 300 µg/mL (4 h) does the source give for `COc1cc(CC(=O)N[C@H]2CC[C@H](/C=C/C3CC3)CC2)ccc1O` [Example 55] here?
Answer: The change in vivo at 300 µg/mL was 55.4%.

Question: Which change in vivo at 300 µg/mL (4 h) does the source give for `COc1cc(CC(=O)N[C@H]2CC[C@H](CC3CC3)CC2)ccc1O` [Example 100, N-(trans-4-cyclopropylmethylcyclohexyl)-2-(4-hydroxy-3-methoxyphenyl)acetamide] here?
Answer: Its change in vivo at 300 µg/mL is 44.5%.

Question: `CCC(CC)[C@H]1CC[C@@H](NC(=O)Cc2ccc(O)c(OC)c2)CC1` [Example 98, 2-(4-hydroxy-3-methoxyphenyl)-N-[cis-4-(3-pentyl)cyclohexyl]acetamide] was tested. Which change in vivo at 300 µg/mL (4 h) did it give?
Answer: Its change in vivo at 300 µg/mL is 74.6%.

Question: With `COc1cc(CC(=O)N[C@H]2CC[C@H](CCC3CCC3)CC2)ccc1O` [Example 59, N-[trans-4-(2-cyclobutylethyl)cyclohexyl]-2-(4-hydroxy-3-methoxyphenyl)acetamide] as the molecule, how does the change in vivo at 300 µg/mL (4 h) read?
Answer: Its change in vivo at 300 µg/mL is 74.7%.

Question: With `COc1cc(CC(=O)N[C@H]2CC[C@H](CC(C)C)CC2)ccc1O` [Example 33] as the molecule, how does the change in vivo at 300 µg/mL (4 h) read?
Answer: Its change in vivo at 300 µg/mL is 73.3%.

Question: For `COc1cc(CC(=O)N[C@H]2CC[C@@H](CCC(C)C)CC2)ccc1O` [Example 48, 2-(4-hydroxy-3-methoxyphenyl)-N-[cis-4-(3-methylbutyl)cyclohexyl]acetamide], which change in vivo at 300 µg/mL (4 h) is on record?
Answer: Its change in vivo at 300 µg/mL is 79.6%.

Question: For `CCC[C@H]1CC[C@H](NC(=O)Cc2ccc(O)c(OC)c2)CC1` [Example 31], which change in vivo at 300 µg/mL (4 h) is on record?
Answer: The change in vivo at 300 µg/mL was 54.3%.

Question: `CCOC(=O)CC[C@H]1CC[C@H](NC(=O)Cc2ccc(O)c(OC)c2)CC1` [Example 29] was tested. Which change in vivo at 300 µg/mL (4 h) did it give?
Answer: Its change in vivo at 300 µg/mL is 45.8%.

Question: How did the change in vivo at 300 µg/mL (4 h) turn out when `COc1cc(CC(=O)N[C@H]2CC[C@@H](CCC3CCC3)CC2)ccc1O` [Example 70] was run?
Answer: Its change in vivo at 300 µg/mL is 92.6%.

Question: `COc1cc(CC(=O)N[C@H]2CC[C@H](/C=C\CC(C)C)CC2)ccc1O` [Example 15] was tested. Which change in vivo at 300 µg/mL (4 h) did it give?
Answer: The change in vivo at 300 µg/mL was 94.4%.

Question: How did the change in vivo at 300 µg/mL turn out when `COc1cc(CC(=O)N[C@H]2CC[C@H](OC(=O)Cc3ccccc3)CC2)ccc1O` [Example 41, N-[trans-4-(benzylcarbonyloxy)cyclohexyl]-2-(4-hydroxy-3-methoxyphenyl)acetamide] was run?
Answer: Its change in vivo at 300 µg/mL is 45.8%.

Question: With `COc1cc(CC(=O)N[C@H]2CC[C@H](C=C(C)C)CC2)ccc1O` [Example 24] as the molecule, how does the change in vivo at 300 µg/mL (4 h) read?
Answer: The change in vivo at 300 µg/mL was 72.4%.

Question: How did the change in vivo at 300 µg/mL (4 h) turn out when `COc1cc(CC(=O)N[C@H]2CC[C@H](OCCC(C)C)CC2)ccc1O` [Example 37] was run?
Answer: The change in vivo at 300 µg/mL was 49.9%.

Question: Which change in vivo at 300 µg/mL (4 h) does the source give for `COc1cc(CC(=O)N[C@H]2CC[C@H](/C=C/CCF)CC2)ccc1O` [Example 103] here?
Answer: The change in vivo at 300 µg/mL was 36.7%.

Question: For `COc1cc(CC(=O)N[C@H]2CC[C@H](/C=C/CC(C)C)CC2)ccc1O` [Example 56], which change in vivo at 300 µg/mL (4 h) is on record?
Answer: The change in vivo at 300 µg/mL was 70.2%.

Question: For `CC/C=C\[C@H]1CC[C@@H](NC(=O)Cc2ccc(O)c(OC)c2)CC1` [Example 49, N-{cis-4-[(Z)-1-butenyl]cyclohexyl}-2-(4-hydroxy-3-methoxyphenyl)acetamide], which change in vivo at 300 µg/mL (4 h) is on record?
Answer: The change in vivo at 300 µg/mL was 97%.
